Reference: PMC7179994 (Thrombosis and haemostasis, 2019)

Experiments:
[1] = system: leukocyte (neutrophil) infiltration into the peritoneum, wild-type C57BL/6J mice; experiment: Mouse model of peritonitis, leukocyte infiltration, wild-type mice; type: in vivo; conditions: 0.8 μM i.v. in 200 μL PBS, without (β15–44)2, 4 hours, n = 7
[2] = system: transendothelial migration of leukocytes; conditions: fibrinogen; cited from earlier work

CN1CCN(CCOc2cc(OC3CCOCC3)c3c(Nc4c(Cl)ccc5c4OCO5)ncnc3c2)CC1 [Saracatinib]
Infiltration of leukocytes, Fyn inhibitor alone [1]: no effect on infiltration of leukocytes

fibrinogen
Transendothelial migration of leukocytes [2]: promotes transendothelial migration of leukocytes
